Results reported in patent publication US20240116897A1, “BENZOTHIAZOLE AND BENZIMIDAZOLE DERIVATIVES, PHARMACEUTICALLY ACCEPTABLE SALT THEREOF, PREPARATION METHOD THEREFOR, AND PHARMACEUTICAL COMPOSITION COMPRISING SAME AS ACTIVE INGREDIENT” (KOREA RESEARCH INSTITUTE OF CHEMICAL TECHNOLOGY, priority 2021, published 2024).

How the values were obtained:
[1] = molecular target: T1, SIRT7 protein (Homo sapiens, UniProt Q9NRC8); assay: SIRT Glo assay, inhibitory activity against Sirt7; assay type: biochemical; conditions: 10 μM compound
T1 construct: purchased SignalChem S41-30H
T1 sequence (Q9NRC8 1-400): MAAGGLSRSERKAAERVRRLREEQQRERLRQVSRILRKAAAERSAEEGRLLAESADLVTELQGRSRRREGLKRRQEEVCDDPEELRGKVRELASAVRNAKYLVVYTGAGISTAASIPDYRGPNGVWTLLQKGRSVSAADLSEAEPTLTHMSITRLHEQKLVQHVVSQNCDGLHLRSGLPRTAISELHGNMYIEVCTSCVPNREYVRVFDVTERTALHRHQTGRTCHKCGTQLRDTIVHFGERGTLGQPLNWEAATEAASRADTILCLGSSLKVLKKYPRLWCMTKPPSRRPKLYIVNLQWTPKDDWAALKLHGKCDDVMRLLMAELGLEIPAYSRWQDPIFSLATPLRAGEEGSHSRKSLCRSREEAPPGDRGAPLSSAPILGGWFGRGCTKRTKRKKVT
Method in brief: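 Recombinant SIRT7 (20 ng per well) pre-incubated 30 min with compound in SIRT Glo buffer, then SIRT Glo substrate added for 1 h before luminescence reading. Background-subtracted signal expressed as % inhibition relative to no-compound control.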

[2] = system: COLO32ODM tumor xenograft; assay: In vivo mouse tumor xenograft, COLO32ODM; conditions: nude mice, 3 weeks
Description: The compounds of the present invention were administered to mouse tumor xenograft to measure tumor suppression in vivo test. BALB/C-nu female 5-week-old mice were introduced. COLO32ODM and SW480 cells, which are human colorectal cancer cells, were isolated from culture flasks using trypsin and prepared at a concentration of 1×10^8 cell/ml. It was mixed with Matrigel (Gibco, Cat. No. A14133-02) at a ratio of 1:1 and injected 100 μL subcutaneously into the dorsal side of 5-week-old mice. After 2 weeks, when the volume of the mouse tumor reached 100 mm^3, oral administration of the compound was started 5 times a week. (Day 0), After that, it was conducted for 3 weeks.
In the negative control group, 0.1% Carboxylmethyl cellulose and 0.2% tween 80 solution were administered instead of the compound according to the same administration route and administration frequency. 6 mice were used for each experimental group (FIG. 3). The size of the tumor was measured in the long axis (length, L) and the short axis (width, W) once every 3 days, and the tumor volume (mm^3) was calculated as (L×W×W)/2 thereby the average for each group was calculated. Statistical processing was performed using the GraphPad Prism6 program, and a p-value of less than 0.05 was considered significant.
A 5-week-old nude mouse whose thymus was removed and whose T cells were reduced and whose immune system was suppressed was introduced, and human colorectal cancer cell lines, COLO32ODM and SW480, were subcutaneously injected.

O=C(Nc1nc2ccccc2s1)c1ccc(CC2CCNCC2)cc1C(F)(F)F [Compound 1-83, N-(benzo[d]thiazol-2-yl)-4-(piperidin-4-ylmethyl)-2-(trifluoromethyl)benzamide]
inhibition at 10 µM [1]: 42%

CCNC(=O)N1CCC(Cc2ccc(C(=O)Nc3nc4ccccc4s3)c(C(F)(F)F)c2)CC1 [Compound 1-84, 4-(4-(benzo[d]thiazol-2-ylcarbamoyl)-3-(trifluoromethyl)benzyl)-N-ethylpiperidine-1-carboxamide]
inhibition at 10 µM [1]: 53%

O=C(Nc1nc2ccccc2s1)c1ccc(CC2CCN(C(=O)Nc3ccccc3)CC2)cc1C(F)(F)F [Compound 1-85, 4-(4-(benzo[d]thiazol-2-ylcarbamoyl)-3-(trifluoromethyl)benzyl)-N-phenylpiperidine-1-carboxamide]
inhibition at 10 µM [1]: 28%

CC(C)(C)OC(=O)N1CCC(=Cc2ccc(C(=O)Nc3nc4ccccc4s3)c(F)c2)CC1 [Compound 1-86, tert-butyl 4-(4-(benzo[d]thiazol-2-ylcarbamoyl)-3-fluorobenzylidene)piperidine-1-carboxylate]
inhibition at 10 µM [1]: 60%

O=C(Nc1nc2ccccc2s1)c1ccc(C=C2CCNCC2)cc1F [Compound 1-87, N-(benzo[d]thiazol-2-yl)-2-fluoro-4-(piperidin-4-ylidenemethyl)benzamide]
inhibition at 10 µM [1]: 100%

CCNC(=O)N1CCC(=Cc2ccc(C(=O)Nc3nc4ccccc4s3)c(F)c2)CC1 [Compound 1-88, 4-(4-(benzo[d]thiazol-2-ylcarbamoyl)-3-fluorobenzylidene)-N-ethylpiperidine-1-carboxamide]
inhibition at 10 µM [1]: 100%

O=C(Nc1nc2ccccc2s1)c1ccc(C=C2CCN(C(=O)Nc3ccccc3)CC2)cc1F [Compound 1-89, 4-(4-(benzo[d]thiazol-2-ylcarbamoyl)-3-fluorobenzylidene)-N-phenylpiperidine-1-carboxamide]
inhibition at 10 µM [1]: 97%

O=C(Nc1nc2ccccc2s1)c1ccc(C=C2CCN(S(=O)(=O)c3ccccc3)CC2)cc1F [Compound 1-90, N-(benzo[d]thiazol-2-yl)-2-fluoro-4-((1-(phenylsulfonyl)piperidin-4-ylidene)methyl)benzamide]
inhibition at 10 µM [1]: 27%

CCS(=O)(=O)N1CCC(=Cc2ccc(C(=O)Nc3nc4ccccc4s3)c(F)c2)CC1 [Compound 1-91, N-(benzo[d]thiazol-2-yl)-4-((1-(ethylsulfonyl)piperidin-4-ylidene)methyl)-2-fluorobenzamide]
inhibition at 10 µM [1]: 76%

O=C(Nc1nc2ccccc2s1)c1ccc(C=C2CCN(C(=O)c3ccccc3)CC2)cc1F [Compound 1-92, N-(benzo[d]thiazol-2-yl)-4-((1-benzoylpiperidin-4-ylidene)methyl)-2-fluorobenzamide]
inhibition at 10 µM [1]: 97%

O=C(Nc1nc2ccccc2s1)c1ccc(C=C2CCN(C(=O)Nc3ccc(C(F)(F)F)cc3)CC2)cc1F [Compound 1-93, 4-(4-(benzo[d]thiazol-2-ylcarbamoyl)-3-fluorobenzylidene)-N-(4-(trifluoromethyl)phenyl)piperidine-1-carboxamide]
inhibition at 10 µM [1]: 70%

CC(C)NC(=O)N1CCC(=Cc2ccc(C(=O)Nc3nc4ccccc4s3)c(F)c2)CC1 [Compound 1-94, 4-(4-(benzo[d]thiazol-2-ylcarbamoyl)-3-fluorobenzylidene)-N-isopropylpiperidine-1-carboxamide]
inhibition at 10 µM [1]: 98%

CC(C)(C)OC(=O)N1CCC(=Cc2ccc(C(=O)Nc3nc4ccccc4s3)cc2Cl)CC1 [Compound 1-95, tert-butyl 4-(4-(benzo[d]thiazol-2-ylcarbamoyl)-2-chlorobenzylidene)piperidine-1-carboxylate]
inhibition at 10 µM [1]: 34%

O=C(Nc1nc2ccccc2s1)c1ccc(C=C2CCNCC2)c(Cl)c1 [Compound 1-96, N-(benzo[d]thiazol-2-yl)-3-chloro-4-(piperidin-4-ylidenemethyl)benzamide]
inhibition at 10 µM [1]: 91%

CCNC(=O)N1CCC(=Cc2ccc(C(=O)Nc3nc4ccccc4s3)cc2Cl)CC1 [Compound 1-97, 4-(4-(benzo[d]thiazol-2-ylcarbamoyl)-2-chlorobenzylidene)-N-ethylpiperidine-1-carboxamide]
inhibition at 10 µM [1]: 100%

CC(C)(C)OC(=O)N1CCC(=Cc2cc(F)c(C(=O)Nc3nc4ccccc4s3)c(F)c2)CC1 [Compound 1-98, tert-butyl 4-(4-(benzo[d]thiazol-2-ylcarbamoyl)-3,5-difluorobenzylidene)piperidine-1-carboxylate]
inhibition at 10 µM [1]: 21%

O=C(Nc1nc2ccccc2s1)c1c(F)cc(C=C2CCNCC2)cc1F [Compound 1-99, N-(benzo[d]thiazol-2-yl)-2,6-difluoro-4-(piperidin-4-ylidenemethyl)benzamide]
inhibition at 10 µM [1]: 63%

CCNC(=O)N1CCC(=Cc2cc(F)c(C(=O)Nc3nc4ccccc4s3)c(F)c2)CC1 [Compound 1-100, 4-(4-(benzo[d]thiazol-2-ylcarbamoyl)-3,5-difluorobenzylidene)-N-ethylpiperidine-1-carboxamide]
inhibition at 10 µM [1]: 96%

O=C(Nc1nc2ccccc2s1)c1c(F)cc(C=C2CCN(C(=O)Nc3ccccc3)CC2)cc1F [Compound 1-101, 4-(4-(benzo[d]thiazol-2-ylcarbamoyl)-3,5-difluorobenzylidene)-N-phenylpiperidine-1-carboxamide]
inhibition at 10 µM [1]: 100%

O=C(Nc1nc2ccccc2s1)c1c(F)cc(C=C2CCN(C(=O)Nc3ccc(C(F)(F)F)cc3)CC2)cc1F [Compound 1-102, 4-(4-(benzo[d]thiazol-2-ylcarbamoyl)-3,5-difluorobenzylidene)-N-(4-(trifluoromethyl)phenyl)piperidine-1-carboxamide]
inhibition at 10 µM [1]: 37%

CC(C)(C)OC(=O)N1CCC(=Cc2ccc(C(=O)Nc3nc4ccccc4s3)c(Cl)c2)CC1 [Compound 1-103, tert-butyl 4-(4-(benzo[d]thiazol-2-ylcarbamoyl)-3-chlorobenzylidene)piperidine-1-carboxylate]
inhibition at 10 µM [1]: 44%

O=C(Nc1nc2ccccc2s1)c1ccc(C=C2CCNCC2)cc1Cl [Compound 1-104, N-(benzo[d]thiazol-2-yl)-2-chloro-4-(piperidin-4-ylidenemethyl)benzamide]
inhibition at 10 µM [1]: 92%

CCNC(=O)N1CCC(=Cc2ccc(C(=O)Nc3nc4ccccc4s3)c(Cl)c2)CC1 [Compound 1-105, 4-(4-(benzo[d]thiazol-2-ylcarbamoyl)-3-chlorobenzylidene)-N-ethylpiperidine-1-carboxamide]
inhibition at 10 µM [1]: 100% | tumor size compared to the control group [2]: reduced

O=C(Nc1nc2ccccc2s1)c1ccc(C=C2CCN(C(=O)Nc3ccccc3)CC2)cc1Cl [Compound 1-106, 4-(4-(benzo[d]thiazol-2-ylcarbamoyl)-3-chlorobenzylidene)-N-phenylpiperidine-1-carboxamide]
inhibition at 10 µM [1]: 99% | tumor size compared to the control group [2]: reduced

O=C(Nc1nc2ccccc2s1)c1ccc(C=C2CCN(C(=O)Nc3ccc(C(F)(F)F)cc3)CC2)cc1Cl [Compound 1-107, 4-(4-(benzo[d]thiazol-2-ylcarbamoyl)-3-chlorobenzylidene)-N-(4-(trifluoromethyl)phenyl)piperidine-1-carboxamide]
inhibition at 10 µM [1]: 34%

O=C(Nc1nc2ccccc2s1)c1ccc(C=C2CCN(C(=O)Nc3ccc(F)cc3)CC2)cc1Cl [Compound 1-108, 4-(4-(benzo[d]thiazol-2-ylcarbamoyl)-3-chlorobenzylidene)-N-(4-fluorophenyl)piperidine-1-carboxamide]
inhibition at 10 µM [1]: 100%
